Results: PubChem BioAssay AID248 (DTP/NCI, 2004)
Where “and” joins values, the source holds several entries; their conditions need not be identical. Identical values can stand only once. Inconclusive results and toxic doses are left out. No stated cut-off is given here; in the data, active means T/C of 150% or more; inactive means T/C below 125%.

System: L1210 leukemia ip in BDF1 mice, survival T/C
Test: NCI In Vivo Anticancer Drug Screen. Data for tumor model L1210 Leukemia (intraperitoneal) in B6D2F1 (BDF1) mice
Conditions: endpoint: mean survival time, higher = longer survival
How it was run: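 Mice bearing the transplanted tumor received compound or vehicle. Survival of the treated group was divided by that of the vehicle-treated control group to give the ratio.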

[1] = dose: 100.0 mg/kg/injection, schedule: Q04DX003 (ip), vehicle: saline with Tween-80
[2] = dose: 200.0 mg/kg/injection, schedule: Q04DX003 (ip), vehicle: saline with Tween-80
[3] = dose: 400.0 mg/kg/injection, schedule: Q04DX003 (ip), vehicle: saline with Tween-80
[4] = dose: 100.0 mg/kg/injection, schedule: Q04DX002 (ip), vehicle: Klucel (hydroxypropylcellulose) (HPC)
[5] = dose: 200.0 mg/kg/injection, schedule: Q04DX002 (ip), vehicle: Klucel (hydroxypropylcellulose) (HPC)
[6] = dose: 400.0 mg/kg/injection, schedule: Q04DX002 (ip), vehicle: Klucel (hydroxypropylcellulose) (HPC)
[7] = dose: 100.0 mg/kg/injection, schedule: Q01DX001 (ip), vehicle: Klucel (hydroxypropylcellulose) (HPC)
[8] = dose: 200.0 mg/kg/injection, schedule: Q01DX001 (ip), vehicle: Klucel (hydroxypropylcellulose) (HPC)
[9] = dose: 400.0 mg/kg/injection, schedule: Q01DX001 (ip), vehicle: Klucel (hydroxypropylcellulose) (HPC)
[10] = dose: 50.0 mg/kg/injection, schedule: Q01DX001 (ip), vehicle: carboxymethylcellulose (CMC)
[11] = dose: 100.0 mg/kg/injection, schedule: Q01DX001 (ip), vehicle: carboxymethylcellulose (CMC)
[12] = dose: 200.0 mg/kg/injection, schedule: Q01DX001 (ip), vehicle: carboxymethylcellulose (CMC)
[13] = dose: 400.0 mg/kg/injection, schedule: Q01DX001 (ip), vehicle: carboxymethylcellulose (CMC)
[14] = dose: 100.0 mg/kg/injection, schedule: Q01DX009 (ip), vehicle: saline with Tween-80
[15] = dose: 100.0 mg/kg/injection, schedule: Q04DX003 (ip), vehicle: Klucel (hydroxypropylcellulose) (HPC)
[16] = dose: 200.0 mg/kg/injection, schedule: Q01DX009 (ip), vehicle: saline with Tween-80
[17] = dose: 200.0 mg/kg/injection, schedule: Q04DX003 (ip), vehicle: Klucel (hydroxypropylcellulose) (HPC)
[18] = dose: 400.0 mg/kg/injection, schedule: Q01DX009 (ip), vehicle: saline with Tween-80
[19] = dose: 400.0 mg/kg/injection, schedule: Q04DX003 (ip), vehicle: Klucel (hydroxypropylcellulose) (HPC)
[20] = dose: 100.0 mg/kg/injection, schedule: Q01DX001 (ip), vehicle: saline
[21] = dose: 200.0 mg/kg/injection, schedule: Q01DX001 (ip), vehicle: saline
[22] = dose: 400.0 mg/kg/injection, schedule: Q01DX001 (ip), vehicle: saline

Measured: T/C

C=C(Cl)CSCCO
inactive: [1] 92 % of control | [2] 97 % of control | [3] 97 % of control

CCOC(=O)Nc1nc2nc[nH]c2c(NC(c2ccccc2)c2ccccc2)c1Br
inactive: [4] 91 % of control | [5] 91 % of control | [6] 86 % of control

C/C(=C/CC1CCC2C3=CCC4CC(O)CCC4(C)C3CCC12C)C(C)C(C)C (stereo unspecified)
inactive: [7] 102 % of control | [8] 98 % of control | [9] 88 % of control

CC(/C=N/NC(N)=S)=N\NC(N)=S
inactive: dose: 12.5 mg/kg/injection, schedule: Q01DX Z (oral), vehicle: carboxymethylcellulose (CMC) 106 % of control | dose: 25.0 mg/kg/injection, schedule: Q01DX Z (oral), vehicle: carboxymethylcellulose (CMC) 113 % of control | [10] 97 % of control | dose: 50.0 mg/kg/injection, schedule: Q01DX Z (ip), vehicle: carboxymethylcellulose (CMC) 95 % of control | dose: 50.0 mg/kg/injection, schedule: Q01DX Z (oral), vehicle: carboxymethylcellulose (CMC) 113 % of control | [11] 101 % of control | dose: 100.0 mg/kg/injection, schedule: Q01DX Z (ip), vehicle: carboxymethylcellulose (CMC) 100 % of control | dose: 100.0 mg/kg/injection, schedule: Q01DX Z (oral), vehicle: carboxymethylcellulose (CMC) 124 % of control | [12] 91 % of control | dose: 200.0 mg/kg/injection, schedule: Q01DX Z (ip), vehicle: carboxymethylcellulose (CMC) 103 % of control | [13] 97 % of control | dose: 400.0 mg/kg/injection, schedule: Q01DX Z (ip), vehicle: carboxymethylcellulose (CMC) 103 % of control

CC(=O)NS(=O)(=O)c1ccc(C)cc1
inactive: dose: 100.0 mg/kg/injection, schedule: Q04DX003 (ip), vehicle: acetone 115 % of control | dose: 200.0 mg/kg/injection, schedule: Q04DX003 (ip), vehicle: acetone 108 % of control | dose: 400.0 mg/kg/injection, schedule: Q04DX003 (ip), vehicle: acetone 97 % of control

Cc1ccc(NC(=O)c2ccc(Cl)cc2Cl)cc1C
inactive: [7] 90 % of control | [14] 106 % of control | [15] 108 % of control | [8] 90 % of control | [16] 97 % of control | [17] 93 % of control | [9] 92 % of control | [18] 100 % of control | [19] 94 % of control

CCCC(C)c1ccc(C(C)=O)cc1 (stereo unspecified)
inactive: dose: 25.6 mg/kg/injection, schedule: Q04DX002 (ip), vehicle: saline with Tween-80 100 % of control | dose: 64.0 mg/kg/injection, schedule: Q04DX002 (ip), vehicle: saline with Tween-80 92 % of control | [14] 89 % of control | [1] 91 % of control | dose: 160.0 mg/kg/injection, schedule: Q04DX002 (ip), vehicle: saline with Tween-80 88 % of control | [16] 89 % of control | [2] 96 % of control | [18] 90 % of control | dose: 400.0 mg/kg/injection, schedule: Q04DX002 (ip), vehicle: saline with Tween-80 92 % of control | [3] 88 % of control

COc1ccc(NC(=O)NC(C)(C)C)c(OC)c1
inactive: dose: 100.0 mg/kg/injection, schedule: Q01DX009 (ip), vehicle: Klucel (hydroxypropylcellulose) (HPC) 100 % of control | dose: 200.0 mg/kg/injection, schedule: Q01DX009 (ip), vehicle: Klucel (hydroxypropylcellulose) (HPC) 100 % of control | dose: 400.0 mg/kg/injection, schedule: Q01DX009 (ip), vehicle: Klucel (hydroxypropylcellulose) (HPC) 98 % of control

CN1CCCCCCCC(=O)C(OC(=O)c2ccc([N+](=O)[O-])cc2)CCCCCCC1 (stereo unspecified)
inactive: [10] 95 % of control | [11] 97 % of control | [12] 95 % of control | [13] 95 % of control

CCSC(=O)N=Nc1ccc(O)cc1
inactive: dose: 50.0 mg/kg/injection, schedule: Q01DX001 (ip), vehicle: saline 103 % of control | [20] 100 % of control | [21] 94 % of control | [22] 111 % of control

CCCC(=O)Oc1ccc(C(C)(C)CC(C)(C)C)cc1
inactive: [20] 94 % of control | [21] 98 % of control | [22] 100 % of control

O=C(Nc1ccc(C2=NCCN2)cc1)c1cc(C(=O)Nc2ccc(C3=NCCN3)cc2)cc(C(=O)Nc2ccc(C3=NCCN3)cc2)c1
inactive: dose: 4.3 mg/kg/injection, schedule: Q01DX Z (ip), vehicle: saline 95 % of control | dose: 6.4 mg/kg/injection, schedule: Q01DX Z (ip), vehicle: saline 93 % of control | dose: 9.7 mg/kg/injection, schedule: Q01DX Z (ip), vehicle: saline 97 % of control and 92 % of control | dose: 15.0 mg/kg/injection, schedule: Q01DX Z (ip), vehicle: saline 92 % of control | dose: 22.0 mg/kg/injection, schedule: Q01DX Z (ip), vehicle: saline 88 % of control | dose: 33.0 mg/kg/injection, schedule: Q01DX Z (ip), vehicle: saline 97 % of control | dose: 111.0 mg/kg/injection, schedule: Q01DX Z (ip), vehicle: saline 93 % of control | dose: 166.0 mg/kg/injection, schedule: Q01DX Z (ip), vehicle: saline 90 % of control | dose: 250.0 mg/kg/injection, schedule: Q01DX Z (ip), vehicle: saline 87 % of control | dose: 375.0 mg/kg/injection, schedule: Q01DX Z (ip), vehicle: saline 88 % of control

c1ccc2c(c1)NC1CCN2C1 (stereo unspecified)
inactive: [1] 109 % of control | [2] 103 % of control | [3] 97 % of control

O=Cc1[nH]c(=S)[nH]c(=O)c1Cc1ccccc1Cl
inactive: [15] 101 % of control | [17] 98 % of control | [19] 97 % of control

CCO/C(C)=N/OC(=O)c1ccccc1
inactive: [4] 94 % of control | [5] 110 % of control | [6] 94 % of control
